Measurements reported in US20230271940A1, “HETEROARYL SUBSTITUTED 3-(1-OXOISOINDOLIN-2-YL)PIPERIDINE-2,6-DIONE DERIVATIVES AND USES THEREOF” (Novartis AG, priority 2020, published 2023).
Where two headings read alike, the source gives them in different places.

Assays:
IKZF2 = IKZF2 (Homo sapiens, UniProt Q96SW2+Q9UKS7); assay: Prolabel quantification of IKZF2 protein levels in 293GT cells; type: cell-based
Protocol: (§1) The Prolabel system from DiscoverX was used to develop high-throughput and quantitative assays to measure changes in IKZF1, IKZF2 and GSPT1 protein levels in response to compounds. The prolabel tag was derived from the alpha fragment of beta galactosidase and has the following protein sequence: mssnslavvlqadwenpgvtqlnrlaahppfaswrnseeartdipsqqlislnge. The complementary fragment of beta-galactosidase (from DiscoverX), is added to the prolabel tag to form an active beta galactosidase enzyme whose activity can be precisely measured. In this way, the levels of a fusion protein with the prolabel tag can be quantified in cell lysates.
Lentiviral vectors, based on the Invitrogen pLenti6.2/V5 DEST backbone, were constructed that placed the prolabel tag upstream of IKZF1, IKZF2 or GSPT1 and expressed the fusion protein from a CMV promoter.
To ensure moderate and consistent expression of the prolabel fusion proteins across all cells in the population, stable cell lines were constructed from cells expressing a single copy of the construct. Lentivirus packaged with the constructs was made using the Virapower kit from Invitrogen.
The levels of prolabel tagged fusion proteins in compound treated cell lines were measured as follows:
Day 1, Cells were diluted to 1.0×10^6 cells/ml in normal growth medium. 17.5 μL of cells were plated in each well of a solid white 384 well plate. Plates were incubated overnight in a 37° C. tissue culture incubator.
Day 2, Serial dilutions of compounds were made in 384 well plates from 10 mM stocks. 15 μL of DMSO was added to each well of a 384 well plate. In the first column, 15 μL of stock compound was added. The solution was mixed and 15 μL was transferred to the next column. This was repeated until 20 two-fold dilutions were prepared. 2.5 μL of diluted compounds were transferred into 60 μL of cell culture medium in another 384 well plate, and mixed well. […] of this mixture was added to the plated cells. The final DMSO concentration was 0.5% and the highest concentration of compound was 50 μM. Plates were incubated overnight (e.g., about 14 h, 18 h, or 24 h) in a 37° C. tissue culture incubator.
Day 3, Plates were removed from the incubator and allowed to equilibrate at r.t. for 30 minutes. Prolabel substrate (DiscoverX PathHunter Prolabel Detection Kit, User manual: 93-0180) was added as described by the manufacturers protocols. Plates were incubated at r.t. for three hours and luminescence was read using an Envision reader (Perkin Elmer) Data was analyzed and visualized using the Spotfire software package.

IKZF1 = IKZF1 (Homo sapiens, UniProt Q13422+Q96SW2); assay: Prolabel quantification of IKZF1 protein levels in 293GT cells; type: cell-based; details: Prolabel assay
Protocol: as §1
Lentiviral vectors, based on the Invitrogen pLenti6.2/V5 DEST backbone, were constructed that placed the prolabel tag upstream of IKZF1, IKZF2 or GSPT1 and expressed the fusion protein from a CMV promoter. […]
The levels of prolabel tagged fusion proteins in compound treated cell lines were measured as follows: […]
Day 3, Plates were removed from the incubator and allowed to equilibrate at r.t. for 30 minutes. […] Plates were incubated at r.t. for three hours and luminescence was read using an Envision reader (Perkin Elmer) Data was analyzed and visualized using the Spotfire software package.

[1] = 10 μM, 24 h, Prolabel assay, 293GT cells

Chain of IKZF2 (Q9UKS7 whole entry, the tested form may be a part): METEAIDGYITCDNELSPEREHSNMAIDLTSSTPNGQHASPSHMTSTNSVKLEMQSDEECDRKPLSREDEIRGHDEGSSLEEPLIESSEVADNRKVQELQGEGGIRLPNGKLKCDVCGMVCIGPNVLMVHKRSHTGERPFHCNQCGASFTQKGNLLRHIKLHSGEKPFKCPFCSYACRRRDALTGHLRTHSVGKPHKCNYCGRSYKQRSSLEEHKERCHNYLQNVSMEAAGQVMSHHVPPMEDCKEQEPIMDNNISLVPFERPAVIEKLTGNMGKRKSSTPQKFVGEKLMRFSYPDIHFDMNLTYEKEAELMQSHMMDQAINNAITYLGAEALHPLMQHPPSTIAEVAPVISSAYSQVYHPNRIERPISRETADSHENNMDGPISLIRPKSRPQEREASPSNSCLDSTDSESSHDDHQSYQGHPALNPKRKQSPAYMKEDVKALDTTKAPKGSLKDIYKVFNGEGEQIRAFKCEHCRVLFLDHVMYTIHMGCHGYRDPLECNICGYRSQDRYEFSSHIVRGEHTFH
Chain of IKZF2 (Q96SW2 whole entry, the tested form may be a part): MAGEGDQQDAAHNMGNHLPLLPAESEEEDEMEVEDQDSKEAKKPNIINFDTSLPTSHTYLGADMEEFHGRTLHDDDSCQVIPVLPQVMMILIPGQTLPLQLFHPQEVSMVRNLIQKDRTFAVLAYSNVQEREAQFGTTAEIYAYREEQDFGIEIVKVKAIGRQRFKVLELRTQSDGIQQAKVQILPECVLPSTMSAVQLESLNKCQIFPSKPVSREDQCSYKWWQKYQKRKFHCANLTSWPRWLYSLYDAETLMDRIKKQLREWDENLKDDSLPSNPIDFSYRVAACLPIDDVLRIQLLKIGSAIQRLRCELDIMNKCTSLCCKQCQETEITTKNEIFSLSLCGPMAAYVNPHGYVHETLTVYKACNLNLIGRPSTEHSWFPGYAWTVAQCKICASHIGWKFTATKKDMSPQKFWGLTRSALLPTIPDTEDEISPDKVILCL
Chain of IKZF2 (Q16531 whole entry partner, the tested form may be a part): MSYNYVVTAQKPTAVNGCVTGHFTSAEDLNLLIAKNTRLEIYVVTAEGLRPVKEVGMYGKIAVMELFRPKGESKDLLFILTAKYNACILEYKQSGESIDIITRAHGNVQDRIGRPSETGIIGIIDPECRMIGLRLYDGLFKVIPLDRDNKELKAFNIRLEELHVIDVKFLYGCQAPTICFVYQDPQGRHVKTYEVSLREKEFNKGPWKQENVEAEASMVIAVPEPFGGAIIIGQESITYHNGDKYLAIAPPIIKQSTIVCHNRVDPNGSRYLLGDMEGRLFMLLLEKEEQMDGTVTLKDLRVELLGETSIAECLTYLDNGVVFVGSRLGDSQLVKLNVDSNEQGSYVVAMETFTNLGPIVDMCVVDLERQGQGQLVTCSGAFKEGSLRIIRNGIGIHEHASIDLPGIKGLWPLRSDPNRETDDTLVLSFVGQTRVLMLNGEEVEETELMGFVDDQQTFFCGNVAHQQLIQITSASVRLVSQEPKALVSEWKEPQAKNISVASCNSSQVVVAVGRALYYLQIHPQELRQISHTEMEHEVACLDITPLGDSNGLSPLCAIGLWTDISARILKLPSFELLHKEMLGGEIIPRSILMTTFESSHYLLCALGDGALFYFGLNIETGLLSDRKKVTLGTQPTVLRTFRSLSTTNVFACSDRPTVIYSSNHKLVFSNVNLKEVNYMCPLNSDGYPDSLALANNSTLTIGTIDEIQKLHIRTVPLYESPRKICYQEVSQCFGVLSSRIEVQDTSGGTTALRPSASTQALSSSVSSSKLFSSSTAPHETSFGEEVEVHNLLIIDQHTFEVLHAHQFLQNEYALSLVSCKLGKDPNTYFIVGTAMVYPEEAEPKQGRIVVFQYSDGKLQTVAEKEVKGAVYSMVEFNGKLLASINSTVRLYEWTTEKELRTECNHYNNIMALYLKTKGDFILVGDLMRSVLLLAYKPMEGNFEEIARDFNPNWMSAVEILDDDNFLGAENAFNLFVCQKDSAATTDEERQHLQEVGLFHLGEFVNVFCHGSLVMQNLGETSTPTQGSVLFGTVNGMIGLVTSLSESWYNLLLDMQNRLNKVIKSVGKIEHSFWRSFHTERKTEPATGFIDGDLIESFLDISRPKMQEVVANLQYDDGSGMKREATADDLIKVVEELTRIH
Chain of IKZF1 (Q13422 whole entry): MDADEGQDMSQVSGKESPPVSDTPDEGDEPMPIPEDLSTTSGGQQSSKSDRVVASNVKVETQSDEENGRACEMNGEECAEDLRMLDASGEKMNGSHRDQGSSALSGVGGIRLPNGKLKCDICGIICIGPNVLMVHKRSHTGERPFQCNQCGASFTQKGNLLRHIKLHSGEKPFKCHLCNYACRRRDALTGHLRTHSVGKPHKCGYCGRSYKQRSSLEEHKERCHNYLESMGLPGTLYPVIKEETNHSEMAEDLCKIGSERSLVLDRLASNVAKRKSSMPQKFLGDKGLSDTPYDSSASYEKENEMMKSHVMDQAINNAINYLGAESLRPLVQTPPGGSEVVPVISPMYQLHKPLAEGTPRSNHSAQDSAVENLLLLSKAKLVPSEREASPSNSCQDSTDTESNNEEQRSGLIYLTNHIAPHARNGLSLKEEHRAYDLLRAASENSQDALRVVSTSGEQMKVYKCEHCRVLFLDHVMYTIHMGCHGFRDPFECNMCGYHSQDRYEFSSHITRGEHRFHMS
Chain of IKZF1 (Q96SW2 whole entry): as the sequence (Q96SW2 whole entry, the tested form may be a part) above
Chain of IKZF1 (Q16531 whole entry partner): as the sequence (Q16531 whole entry partner, the tested form may be a part) above

Compound | IKZF2 % protein reduction at 10 μM, 24 h (IKZF2; [1]) [%] | IKZF2 % protein reduction at 10 μM, 24 h (IKZF2) [%] | other results
Cc1cc(-c2ccc3c(c2)CN(C2CCC(=O)NC2=O)C3=O)nn1Cc1ccc(C#N)cc1 (stereo not shown) [Compound I-5, 4-((3-(2-(2,6-dioxopiperidin-3-yl)-1-oxoisoindolin-5-yl)-5-methyl-1H-pyrazol-1-yl)methyl)benzonitrile] | 35 |  | 
CCNc1ccc(-c2ccc3c(c2)CN(C2CCC(=O)NC2=O)C3=O)nn1 (stereo not shown) [Compound I-22, 3-(5-(6-(ethylamino)pyridazin-3-yl)-1-oxoisoindolin-2-yl)piperidine-2,6-dione] |  | 60 | 
COc1cc(-c2ccc3c(c2)CN(C2CCC(=O)NC2=O)C3=O)nn1Cc1ccccc1 (stereo not shown) [Compound I-40, 3-(5-(1-benzyl-5-methoxy-1H-pyrazol-3-yl)-1-oxoisoindolin-2-yl)piperidine-2,6-dione] |  | 80 | 
Nc1cccc2c1C(=O)N(C1CCC(=O)NC1=O)C2=O (stereo not shown) [Control, Pomalidomide] |  |  | IKZF1 degradation @ 10 μM (IKZF1): (80%
O=C1CCC(N2Cc3cc(-c4nc5[nH]c(=O)ccc5[nH]4)ccc3C2=O)C(=O)N1 (stereo not shown) [Compound I-6, 3-(1-oxo-5-(5-oxo-4,5-dihydro-1H-imidazo[4,5-b]pyridin-2-yl)isoindolin-2-yl)piperidine-2,6-dione] |  | 75 | 
COc1cc(Cc2ccccc2)nnc1-c1ccc2c(c1)CN(C1CCC(=O)NC1=O)C2=O (stereo not shown) [Compound I-28, 3-(5-(6-benzyl-4-methoxypyridazin-3-yl)-1-oxoisoindolin-2-yl)piperidine-2,6-dione] |  | 73 | 
O=C1CCC(N2Cc3cc(-c4cccnn4)ccc3C2=O)C(=O)N1 (stereo not shown) [Compound I-42, 3-(1-oxo-5-(pyridazin-3-yl)isoindolin-2-yl)piperidine-2,6-dione] |  | 80 | 
O=C1CCC(N2Cc3cc(-c4cc[nH]n4)ccc3C2=O)C(=O)N1 (stereo not shown) [Compound I-8, 3-(1-oxo-5-(1H-pyrazol-3-yl)isoindolin-2-yl)piperidine-2,6-dione] | 10 |  | 
CCn1nc(-c2ccc3c(c2)CN(C2CCC(=O)NC2=O)C3=O)cc1C(F)(F)F (stereo not shown) [Compound I-7, 3-(5-(1-ethyl-5-(trifluoromethyl)-1H-pyrazol-3-yl)-1-oxoisoindolin-2-yl)piperidine-2,6-dione] |  | 10 | 
CCN(CC)Cc1ccc(-c2ccc3c(c2)CN(C2CCC(=O)NC2=O)C3=O)nn1 (stereo not shown) [Compound I-43, 3-(5-(6-((diethylamino)methyl)pyridazin-3-yl)-1-oxoisoindolin-2-yl)piperidine-2,6-dione] |  | 40 | 
O=C1CCC(N2Cc3cc(-c4n[nH]c5ccccc45)ccc3C2=O)C(=O)N1 (stereo not shown) [Compound I-18, 3-(5-(1H-indazol-3-yl)-1-oxoisoindolin-2-yl)piperidine-2,6-dione] | 40 |  | 
O=C1CCC(N2Cc3cc(-c4ccc(Cc5ccccc5)nn4)ccc3C2=O)C(=O)N1 (stereo not shown) [Compound I-24, 3-(5-(6-benzylpyridazin-3-yl)-1-oxoisoindolin-2-yl)piperidine-2,6-dione] | 90 |  | 
CCn1nc(-c2ccc3c(c2)CN(C2CCC(=O)NC2=O)C3=O)cc1OC (stereo not shown) [Compound I-34, 3-(5-(1-ethyl-5-methoxy-1H-pyrazol-3-yl)-1-oxoisoindolin-2-yl)piperidine-2,6-dione] |  | 50 | 
Cc1c[nH]nc1-c1ccc2c(c1)CN(C1CCC(=O)NC1=O)C2=O (stereo not shown) [Compound I-3, 3-(5-(4-methyl-1H-pyrazol-3-yl)-1-oxoisoindolin-2-yl)piperidine-2,6-dione] | 50 |  | 
CO[C@H]1CC[C@H](Cc2ccc(-c3ccc4c(c3)CN(C3CCC(=O)NC3=O)C4=O)nn2)CC1 (stereo partly shown) [Compound I-25] |  | 68 | 
O=C1CCC(N2Cc3cc(-c4nc5ncccc5[nH]4)ccc3C2=O)C(=O)N1 (stereo not shown) [Compound I-46, 3-(5-(1H-imidazo[4,5-b]pyridin-2-yl)-1-oxoisoindolin-2-yl)piperidine-2,6-dione] |  | 80 | 

More lines, main results first:

IKZF2 % protein reduction at 10 μM, 24 h (IKZF2; [1]) [%] | Compound | IKZF2 % protein reduction at 10 μM, 24 h (IKZF2) [%] | other results
50 | O=C1CCC(N2Cc3cc(-c4nn(Cc5ccccc5)c5c4CCCC5)ccc3C2=O)C(=O)N1 (stereo not shown) [Compound I-15, 3-(5-(1-benzyl-4,5,6,7-tetrahydro-1H-indazol-3-yl)-1-oxoisoindolin-2-yl)piperidine-2,6-dione] |  | 
60 | CCNc1cnnc(-c2ccc3c(c2)CN(C2CCC(=O)NC2=O)C3=O)c1 (stereo not shown) [Compound I-21, 3-(5-(5-(ethylamino)pyridazin-3-yl)-1-oxoisoindolin-2-yl)piperidine-2,6-dione] |  | 
0 | Cc1cc(-c2ccc3c(c2)CN(C2CCC(=O)NC2=O)C3=O)n[nH]1 (stereo not shown) [Compound I-16, 3-(5-(5-methyl-1H-pyrazol-3-yl)-1-oxoisoindolin-2-yl)piperidine-2,6-dione] |  | 
0 | O=C1CCC(N2Cc3cc(-c4nn(Cc5ccccc5)c5ccccc45)ccc3C2=O)C(=O)N1 (stereo not shown) [Compound I-19, 3-(5-(1-benzyl-1H-indazol-3-yl)-1-oxoisoindolin-2-yl)piperidine-2,6-dione] |  | 
50 | Cc1cc(-c2ccc3c(c2)CN(C2CCC(=O)NC2=O)C3=O)nn1Cc1ccccc1 (stereo not shown) [Compound I-4, 3-(5-(1-benzyl-5-methyl-1H-pyrazol-3-yl)-1-oxoisoindolin-2-yl)piperidine-2,6-dione] |  | 
0 | O=C1CCC(N2Cc3cc(-c4cn(Cc5ccccc5)cn4)ccc3C2=O)C(=O)N1 (stereo not shown) [Compound I-1, 3-(5-(1-benzyl-1H-imidazol-4-yl)-1-oxoisoindolin-2-yl)piperidine-2,6-dione] |  | 
20 | O=C1CCC(N2Cc3cc(-c4ccn(Cc5ccccc5)n4)ccc3C2=O)C(=O)N1 (stereo not shown) [Compound I-9, 3-(5-(1-benzyl-1H-pyrazol-3-yl)-1-oxoisoindolin-2-yl)piperidine-2,6-dione] |  | 
60 | Cc1cn(Cc2ccccc2)nc1-c1ccc2c(c1)CN(C1CCC(=O)NC1=O)C2=O (stereo not shown) [Compound I-17, 3-(5-(1-benzyl-4-methyl-1H-pyrazol-3-yl)-1-oxoisoindolin-2-yl)piperidine-2,6-dione] |  | 
30 | CCn1nc(-c2ccc3c(c2)CN(C2CCC(=O)NC2=O)C3=O)c2ccccc21 (stereo not shown) [Compound I-11, 3-(5-(1-ethyl-1H-indazol-3-yl)-1-oxoisoindolin-2-yl)piperidine-2,6-dione] |  | 
